Test results from ChEMBL document CHEMBL3108747, “Synthesis and evaluation of novel cyclic Peptide inhibitors of lysine-specific demethylase 1” (ACS Med Chem Lett, 2014).

What was measured:
[1] = cells; settings: Homo sapiens, Calu-6, 72 h
Description: Cytotoxicity against human Calu6 cells assessed as cell viability after 72 hrs by MTS assay

[2] = test system: MCF7; assay: cells; settings: Homo sapiens, MCF7, 72 h
Description: Cytotoxicity against human MCF7 cells assessed as cell viability after 72 hrs by MTS assay

Structure (SMILES) | IC50 [1] | IC50 [2]
N=C(NCCCNCCCCCCCNCCCNC(=N)NC(=N)NCCC(c1ccccc1)c1ccccc1)NC(=N)NCCC(c1ccccc1)c1ccccc1 | 10.9 µM | 
CSCC[C@H](NC(=O)[C@@H](NC(=O)[C@H](CCCNC(=N)N)NC(=O)[C@H](C)N)[C@@H](C)O)C(=O)N[C@H]1CCCCNC(=O)CC[C@@H](C(=O)N[C@H](C(=O)NCC(=O)NCC(=O)N[C@@H](CCCCN)C(=O)N[C@@H](C)C(=O)N2CCC[C@H]2C(=O)N[C@@H](CCCNC(=N)N)C(=O)N[C@@H](CCCCN)C(=O)N[C@@H](CCC(N)=O)C(=O)N[C@@H](CC(C)C)C(=O)N[C@@H](C)C(N)=O)[C@@H](C)O)NC(=O)[C@H](CCCCN)NC(=O)[C@H](CCCNC(=N)N)NC(=O)[C@H](C)NC(=O)[C@H]([C@@H](C)O)NC1=O | 125 µM | 157 µM
